Reference: patent publication US7087642B2 (priority 1999, dated 2006)
Where two headings read alike, the source gives them in different places.

What was measured:
human PBMC B cells = assay: cells; format: cell-based; settings: read-out: B-cells (IC50)
human PBMC T cells = assay: cells; format: cell-based; settings: Homo sapiens, 72 h, read-out: T-cells (IC50)
IMPDH human type II = IMPDH human type II (Homo sapiens, UniProt P12268); assay: biochemical

| SMILES | IC50 (human PBMC B cells; Homo sapiens, 72 h) [nM] | IC50 (human PBMC T cells) [nM] | Ki (IMPDH human type II; read-out: Ki) [nM] | other results |
| --- | --- | --- | --- | --- |
| COc1cc(NC(=O)Nc2cccc(CNC(=O)OCCC#N)c2)ccc1-c1cnco1 [Compound 1] | < 100 | 100 to 1000 | < 10 |  |
| COc1cc(NC(=O)Nc2cccc(CNC(=O)OCCOCCC#N)c2)ccc1-c1cnco1 [Compound 2] | 100 to 1000 | 100 to 1000 | < 10 |  |
| COc1cc(NC(=O)Nc2cccc(CNC(=O)OCCN(C)CCC#N)c2)ccc1-c1cnco1 [Compound 3] | 100 to 1000 | 100 to 1000 | < 10 |  |
| COc1cc(NC(=O)Nc2cccc(CNC(=O)OCC(OCc3ccco3)N(CCC#N)CC(C)C)c2)ccc1-c1cnco1 (centres unmarked) [Compound 4] | > 1000 | > 1000 | < 10 |  |
| COc1cc(NC(=O)Nc2cccc(CNC(=O)OC(CC#N)CN(C)C)c2)ccc1-c1cnco1 (centres unmarked) [Compound 17] | > 1000 | > 1000 |  |  |
| COc1cc(NC(=O)Nc2cccc(CNC(=O)O[C@H](CC#N)CN(C)C)c2)ccc1-c1cnco1 [Compound 17] |  |  | < 10 |  |
| COc1cc(NC(=O)Nc2cccc(CNC(=O)OC(CC#N)CN3CCCCC3)c2)ccc1-c1cnco1 (centres unmarked) [Compound 21] | > 1000 | 100 to 1000 |  |  |
| COc1cc(NC(=O)Nc2cccc(CNC(=O)O[C@@H](CC#N)CN3CCCCC3)c2)ccc1-c1cnco1 [Compound 21] |  |  | < 10 |  |
| COc1cc(NC(=O)Nc2cccc(CNC(=O)OC(CCl)CC#N)c2)ccc1-c1cnco1 (centres unmarked) [Compound 25] | 100 to 1000 | 100 to 1000 |  |  |
| COc1cc(NC(=O)Nc2cccc(CNC(=O)O[C@@H](CCl)CC#N)c2)ccc1-c1cnco1 [Compound 25] |  |  | < 10 |  |
| COc1cc(NC(=O)Nc2cccc(CNC(=O)OC(CCN(C)C(=O)OC(C)(C)C)c3ccccc3)c2)ccc1-c1cnco1 (centres unmarked) [Compound 31] |  |  | 10 to 50 |  |
| COc1cc(NC(=O)Nc2cccc(CNC(=O)O[C@H](CCC#N)COCc3ccccc3)c2)ccc1-c1cnco1 [Compound 53] |  |  | < 10 |  |
| CC[C@H](COCc1ccccc1)OC(=O)NCc1cccc(NC(=O)Nc2ccc(-c3cnco3)c(OC)c2)c1 [Compound 54] |  |  | < 10 |  |
| COc1cc(NC(=O)Nc2cccc(CNC(=O)O[C@H](CC#N)COCc3ccccc3)c2)ccc1-c1cnco1 [Compound 55] |  |  | < 10 |  |
| COc1cc(NC(=O)Nc2cccc(CNC(=O)OC(CCN3CCCC3)c3ccccc3)c2)ccc1-c1cnco1 (centres unmarked) [Compound 56] | 100 to 1000 |  | < 10 |  |
| COc1cc(NC(=O)Nc2cccc(CNC(=O)O[C@@H]3CC[C@H](OC(C)=O)C3)c2)ccc1-c1cnco1 [Compound 85] |  |  | > 50 |  |
| COc1cc(NC(=O)Nc2cccc(CNC(=O)OC3CCC[C@H]3N3CCOCC3)c2)ccc1-c1cnco1 (some centres unmarked) [Compound 86] | > 1000 | > 1000 |  |  |
| COc1cc(NC(=O)Nc2cccc(CNC(=O)O[C@@H]3CCC[C@H]3N3CCOCC3)c2)ccc1-c1cnco1 [Compound 86] |  |  | 10 to 50 |  |
| CC[C@H](COC(=O)CNC(=O)OC(C)(C)C)OC(=O)NCc1cccc(NC(=O)Nc2ccc(-c3cnco3)c(OC)c2)c1 [Compound 93] |  |  | 10 to 50 |  |
| CC[C@H](COC(C)=O)OC(=O)NCc1cccc(NC(=O)Nc2ccc(-c3cnco3)c(OC)c2)c1 [Compound 94] |  |  | < 10 |  |
| CC[C@H](COC(=O)CN)OC(=O)NCc1cccc(NC(=O)Nc2ccc(-c3cnco3)c(OC)c2)c1 [Compound 95] |  |  | 10 to 50 |  |
| CC[C@H](COP(=O)(O)O)OC(=O)NCc1cccc(NC(=O)Nc2ccc(-c3cnco3)c(OC)c2)c1 [Compound 96] |  |  | 10 to 50 |  |

| SMILES | IC50 (human PBMC B cells; Homo sapiens, 72 h) [nM] | IC50 (human PBMC T cells) [nM] | Ki (IMPDH human type II; read-out: Ki) [nM] | other results |
| --- | --- | --- | --- | --- |
| COc1cc(NC(=O)Nc2cccc(CNC(=O)OC(CN3CCSCC3)c3ccccc3)c2)ccc1-c1cnco1 (centres unmarked) [Compound 105] | 100 to 1000 | 100 to 1000 |  |  |
| COc1cc(NC(=O)Nc2cccc(CNC(=O)O[C@H](CN3CCSCC3)c3ccccc3)c2)ccc1-c1cnco1 [Compound 105] |  |  | < 10 |  |
| COc1cc(NC(=O)Nc2cccc(CNC(=O)OC(CN3CC[S+]([O-])CC3)c3ccccc3)c2)ccc1-c1cnco1 (centres unmarked) [Compound 106] | < 100 | < 100 |  |  |
| COc1cc(NC(=O)Nc2cccc(CNC(=O)O[C@H](CN3CC[S+]([O-])CC3)c3ccccc3)c2)ccc1-c1cnco1 [Compound 106] |  |  | > 50 |  |
| CCCN(CC)CC(OC(=O)NCc1cccc(NC(=O)Nc2ccc(-c3cnco3)c(OC)c2)c1)c1ccccc1 (centres unmarked) [Compound 111] | 100 to 1000 | 100 to 1000 |  |  |
| CCCN(CC)C[C@@H](OC(=O)NCc1cccc(NC(=O)Nc2ccc(-c3cnco3)c(OC)c2)c1)c1ccccc1 [Compound 111] |  |  | > 50 |  |
| COc1cc(NC(=O)Nc2cccc(CNC(=O)OC(CCN(C)CC(C)C)c3ccccc3)c2)ccc1-c1cnco1 (centres unmarked) [Compound 124] |  |  | > 50 |  |
| CCN(CC1CC1)CC(OC(=O)NCc1cccc(NC(=O)Nc2ccc(-c3cnco3)c(OC)c2)c1)c1ccccc1 (centres unmarked) [Compound 134] | 100 to 1000 | 100 to 1000 |  |  |
| CCN(CC1CC1)C[C@@H](OC(=O)NCc1cccc(NC(=O)Nc2ccc(-c3cnco3)c(OC)c2)c1)c1ccccc1 [Compound 134] |  |  | 10 to 50 |  |
| CCN(CC(OC(=O)NCc1cccc(NC(=O)Nc2ccc(-c3cnco3)c(OC)c2)c1)c1ccccc1)C1CC1 (centres unmarked) [Compound 135] |  |  | > 50 |  |
| CCCN(CC(OC(=O)NCc1cccc(NC(=O)Nc2ccc(-c3cnco3)c(OC)c2)c1)c1ccccc1)C1CC1 (centres unmarked) [Compound 136] |  |  | > 50 |  |
| COc1cc(NC(=O)Nc2cccc(CNC(=O)O[C@H](CN(CC3CC3)C3CC3)c3ccccc3)c2)ccc1-c1cnco1 [Compound 137] |  |  | > 50 |  |
| CCC(COS(N)(=O)=O)OC(=O)NCc1cccc(NC(=O)Nc2ccc(-c3cnco3)c(OC)c2)c1 (centres unmarked) [Compound 138] | 100 to 1000 | 100 to 1000 |  |  |
| CC[C@H](COS(N)(=O)=O)OC(=O)NCc1cccc(NC(=O)Nc2ccc(-c3cnco3)c(OC)c2)c1 [Compound 138] |  |  | < 10 |  |
| CCN(C)CCC(OC(=O)NCc1cccc(NC(=O)Nc2ccc(-c3cnco3)c(OC)c2)c1)c1ccccc1 (centres unmarked) [Compound 139] |  |  |  | Ki (IMPDH human type II): > 50 nM |
| CCN(CC)CCC(OC(=O)NCc1cccc(NC(=O)Nc2ccc(-c3cnco3)c(OC)c2)c1)c1ccccc1 (centres unmarked) [Compound 140] |  |  |  | Ki (IMPDH human type II): > 50 nM |
| COc1cc(NC(=O)Nc2cccc(CNC(=O)O[C@H](CO)CCO)c2)ccc1-c1cnco1 [Compound 141] |  |  | 10 to 50 |  |
| CCN(CC)CC(OC(=O)NCc1cccc(NC(=O)Nc2ccc(-c3cnco3)c(OC)c2)c1)c1nccs1 (centres unmarked) [Compound 142] |  |  | 10 to 50 |  |
| CCN(CC)CC(OC(=O)NCc1cccc(NC(=O)Nc2ccc(-c3cnco3)c(OC)c2)c1)C1CCCCC1 (centres unmarked) [Compound 157] | < 100 | < 100 |  |  |
| CCN(CC)C[C@@H](OC(=O)NCc1cccc(NC(=O)Nc2ccc(-c3cnco3)c(OC)c2)c1)C1CCCCC1 [Compound 157] |  |  | 10 to 50 |  |
| CCC(COC(N)=O)OC(=O)NCc1cccc(NC(=O)Nc2ccc(-c3cnco3)c(OC)c2)c1 (centres unmarked) [Compound 159] | 100 to 1000 | 100 to 1000 |  |  |
| CC[C@H](COC(N)=O)OC(=O)NCc1cccc(NC(=O)Nc2ccc(-c3cnco3)c(OC)c2)c1 [Compound 159] |  |  | < 10 |  |

| SMILES | IC50 (human PBMC B cells; Homo sapiens, 72 h) [nM] | IC50 (human PBMC T cells) [nM] | Ki (IMPDH human type II; read-out: Ki) [nM] | other results |
| --- | --- | --- | --- | --- |
| CCC(CNC(=O)OC(C)(C)C)OC(=O)NCc1cccc(NC(=O)Nc2ccc(-c3cnco3)c(OC)c2)c1 (centres unmarked) [Compound 160] |  |  | > 50 |  |
| CCC(CN)OC(=O)NCc1cccc(NC(=O)Nc2ccc(-c3cnco3)c(OC)c2)c1 (centres unmarked) [Compound 161] |  |  | < 10 |  |
| CCC(CO)OC(=O)N[C@@H](C)c1cccc(NC(=O)Nc2ccc(-c3cnco3)c(OC)c2)c1 (some centres unmarked) [Compound 164] | 100 to 1000 | 100 to 1000 |  |  |
| CC[C@H](CO)OC(=O)N[C@@H](C)c1cccc(NC(=O)Nc2ccc(-c3cnco3)c(OC)c2)c1 [Compound 164] |  |  | 10 to 50 |  |
| CC[C@H](CO)OC(=O)N[C@H](C)c1cccc(NC(=O)Nc2ccc(-c3cnco3)c(OC)c2)c1 [Compound 165] |  |  | > 50 |  |
| CCN(CC)C[C@@H](OC(=O)NC(C)c1cccc(NC(=O)Nc2ccc(-c3cnco3)c(OC)c2)c1)c1ccccc1 (some centres unmarked) [Compound 167] |  |  | > 50 |  |
| CCC(CC#N)OC(=O)N[C@@H](C)c1cccc(NC(=O)Nc2ccc(C#N)c(OC)c2)c1 (some centres unmarked) [Compound 168] | 100 to 1000 | 100 to 1000 |  |  |
| CC[C@@H](CC#N)OC(=O)N[C@@H](C)c1cccc(NC(=O)Nc2ccc(C#N)c(OC)c2)c1 [Compound 168] |  |  |  | Ki (IMPDH human type II): 10 to 50 nM |
| CCC(CC#N)OC(=O)N[C@H](C)c1cccc(NC(=O)Nc2ccc(-c3cnco3)c(OC)c2)c1 (some centres unmarked) [Compound 171] | < 100 | 100 to 1000 |  |  |
| CC[C@H](CC#N)OC(=O)N[C@H](C)c1cccc(NC(=O)Nc2ccc(-c3cnco3)c(OC)c2)c1 [Compound 171] |  |  | > 50 |  |
| CCC(CC#N)OC(=O)N[C@H](C)c1cccc(NC(=O)Nc2ccc(C#N)c(OC)c2)c1 (some centres unmarked) [Compound 172] |  | > 1000 |  | IC50 (human PBMC B cells): > 1000 nM |
| CC[C@@H](CC#N)OC(=O)N[C@H](C)c1cccc(NC(=O)Nc2ccc(C#N)c(OC)c2)c1 [Compound 172] |  |  |  | Ki (IMPDH human type II): > 50 nM |
| CCC(CO)OC(=O)N[C@@H](C)c1cccc(NC(=O)Nc2ccc(C#N)c(OC)c2)c1 (some centres unmarked) [Compound 176] | > 1000 | > 1000 |  |  |
| CC[C@@H](CO)OC(=O)N[C@@H](C)c1cccc(NC(=O)Nc2ccc(C#N)c(OC)c2)c1 [Compound 176] |  |  | > 50 |  |
| CCC(NC(=O)O[C@@H](CC)CC#N)c1cccc(NC(=O)Nc2ccc(C#N)c(OC)c2)c1 (some centres unmarked) [Compound 177] |  |  | > 50 |  |
| CCC(NC(=O)O[C@H](CC)CC#N)c1cccc(NC(=O)Nc2ccc(C#N)c(OC)c2)c1 (some centres unmarked) [Compound 178] |  |  | > 50 |  |
| CCC(CC#N)OC(=O)N[C@@H](C)c1cccc(NC(=O)Nc2ccc(C#N)c(Cl)c2)c1 (some centres unmarked) [Compound 183] | 100 to 1000 | 100 to 1000 |  |  |
| CC[C@H](CC#N)OC(=O)N[C@@H](C)c1cccc(NC(=O)Nc2ccc(C#N)c(Cl)c2)c1 [Compound 183] |  |  |  | Ki (IMPDH human type II): 10 to 50 nM |
| COc1cc(NC(=O)Nc2cccc([C@H](C)NC(=O)OC3CCOC3)c2)ccc1C#N (some centres unmarked) [Compound 184] | 100 to 1000 | 100 to 1000 |  |  |
| COc1cc(NC(=O)Nc2cccc([C@H](C)NC(=O)O[C@@H]3CCOC3)c2)ccc1C#N [Compound 184] |  |  | 10 to 50 |  |
| CCOc1cc(NC(=O)Nc2cccc([C@H](C)NC(=O)O[C@H]3CCOC3)c2)ccc1C#N [Compound 186] |  |  | > 50 |  |
